# Results as given in patent US5608091A, “Quinizarin compound, method for production thereof, and use therefor” (Nippon Shokubai Co., Ltd., priority 1993, dated 1997).
# Tests used:
# Format in all cases: physicochemical
# [1] = Visible absorption spectrum (λmax, ε); conditions: for ε: in M-1 cm-1 (unit assumed)
# Color tone of the dye = conditions: Tables 1-9
# [2] = Solubility in toluene and methyl ethyl ketone, three-point scale
# Description: In these tables, the solubility is rated on the three-point scale, wherein Δ stands for a solubility of less than 1% by weight, .largecircle. for a solubility in the approximate range of 1 to 3% by weight, and .circleincircle. for a solubility of not less than 3% by weight.
SMILES,λ max ([1]; in chloroform) [nm],"ε ([1]; in chloroform, at λ max)",Color tone (Color tone of the dye),Solubility in methyl ethyl ketone [2],Solubility in toluene ([2]; in toluene),further results
O=C1c2c(O)ccc(O)c2C(=O)c2c(F)c(Nc3ccc(S(=O)(=O)O)cc3)c(F)c(F)c21 [(27)],–,–,–,–,–,λ max ([1]; in methanol): 521.5 nm; ε ([1]; in methanol): 10600
"CC(C)c1cccc(C(C)C)c1Nc1c(F)c2c(c(Nc3c(C(C)C)cccc3C(C)C)c1Nc1c(C(C)C)cccc1C(C)C)C(=O)c1c(O)ccc(O)c1C2=O [Dye (245), 5,6,7-tris(2,6-diisopropylanilino)-8-fluoroquinizarin]",–,–,–,–,–,ε ([1]; in ethyl cellosolve): 29200
O=C1c2c(O)ccc(O)c2C(=O)c2c(F)c(Sc3ccccc3)c(Sc3ccccc3)c(F)c21 [(298)],489,12700,Orange,.largecircle. (a solubility in the approximate range of 1 to 3% by weight),.circleincircle. (a solubility of not less than 3% by weight),–
O=C1c2c(O)ccc(O)c2C(=O)c2c(Sc3ccccc3)c(Sc3ccccc3)c(Sc3ccccc3)c(Sc3ccccc3)c21 [(307)],495,12600,Brown,.largecircle. (a solubility in the approximate range of 1 to 3% by weight),.largecircle. (a solubility in the approximate range of 1 to 3% by weight),–
COc1ccc(Nc2c(F)c3c(c(F)c2Nc2ccc(OC)cc2)C(=O)c2c(O)ccc(O)c2C3=O)cc1 [(132)],649,13400,Cyan,.largecircle. (a solubility in the approximate range of 1 to 3% by weight),.largecircle. (a solubility in the approximate range of 1 to 3% by weight),–
O=C1c2c(O)ccc(O)c2C(=O)c2c(F)c(Nc3ccc([N+](=O)[O-])cc3)c(F)c(F)c21 [(12)],521,16300,Magenta,Δ (a solubility of less than 1% by weight),Δ (a solubility of less than 1% by weight),–
CC(C)c1cccc(C(C)C)c1Nc1ccc2c(c1)C(=O)c1c(O)ccc(O)c1C2=O [(99)],–,–,–,–,–,λ max ([1]; in toluene): 560 nm; ε ([1]; in toluene): 14850; Solubility ([2]; in toluene): Not less than 3 % by weight

# Continued, in another order:
λ max ([1]; in chloroform) [nm],"ε ([1]; in chloroform, at λ max)",Color tone (Color tone of the dye),SMILES,Solubility in methyl ethyl ketone [2],Solubility in toluene ([2]; in toluene),further results
521.0,17900,–,O=C1c2c(O)ccc(O)c2C(=O)c2c(F)c(Oc3ccccc3)c(Nc3c(Cl)cccc3Cl)c(F)c21 [(110)],–,–,–
508,14000,Orange,O=C1c2c(O)ccc(O)c2C(=O)c2c(F)c(SC3CCCCC3)c(SC3CCCCC3)c(F)c21 [(306)],.largecircle. (a solubility in the approximate range of 1 to 3% by weight),.circleincircle. (a solubility of not less than 3% by weight),–
530,11100,Magenta,CCCCSc1c(SCCCC)c(SCCCC)c2c(c1SCCCC)C(=O)c1c(O)ccc(O)c1C2=O [(308)],.largecircle. (a solubility in the approximate range of 1 to 3% by weight),.circleincircle. (a solubility of not less than 3% by weight),–
527,15300,Magenta,CCOC(=O)c1cccc(Nc2c(F)c(F)c3c(c2F)C(=O)c2c(O)ccc(O)c2C3=O)c1 [(4)],.largecircle. (a solubility in the approximate range of 1 to 3% by weight),.largecircle. (a solubility in the approximate range of 1 to 3% by weight),–
528,14200,Magenta,CCc1cccc(CC)c1Nc1c(F)c(F)c2c(c1F)C(=O)c1c(O)ccc(O)c1C2=O [(18)],.largecircle. (a solubility in the approximate range of 1 to 3% by weight),.circleincircle. (a solubility of not less than 3% by weight),–
540,17000,–,CCOC(=O)c1cccc(Nc2c(F)c3c(c(F)c2Sc2ccccc2)C(=O)c2c(O)ccc(O)c2C3=O)c1 [(115)],–,–,–
